Publication PMC6145916, “Interaction of mitochondrial fission factor with dynamin related protein 1 governs physiological mitochondrial function in vivo” (Scientific Reports, 2018)
Where no end group is shown, it is not given here.

Legend:
wild-type mice = experiment: ATP content in brain tissue; assay type: in vivo, mouse; details: 3 mg/Kg/day, subcutaneous osmotic pump, 8 weeks, WT mice; n = 4 mice, 2 replicates
From the text: (a) Quantification of mitochondrial Drp1 content relative to ALDH2 (a mitochondrial matrix enzyme) in the mitochondrial fraction isolated from total brain lysate of wild-type mice (Western blot shown in Fig. S3B) (n = 4 mice). (b) ATP content in brain tissue of wild-type mice (n = 4 mice, 2 replicates). (c) Representative transmission electron microscopy images of the striatum from wild-type mice. […] The first principal component represents 42% of the variation. (f) Local linear embedding dimensionality reduction and visualization of all behaviors collected weekly from TAT- (black) or P259- (purple) treated WT and TAT- (white) treated R6/2 mice over the course of 8 weeks. […] All behavior and survival tests were conducted by an experienced observer who was blinded to the treatment groups. Data are mean ± s.e.
Five-week old R6/2 HD mice and their wild-type littermates (a total of 60 mice) were implanted subcutaneously with a 28-d Alzet osmotic pump with either P259-TAT or TAT control peptide (15 mice per group) to be delivered continuously at a rate of 3 mg/Kg/day, as previously described. All mice were implanted twice for a total of an 8-week treatment. 20 of the WT mice were implanted 3 times for a total of a 12-week treatment at 3 mg/Kg/day. […]
To quantify mitochondrial motility, the images at time 0 and 150 seconds w ere overlaid. […]

primary cortical neurons = experiment: Mitochondrial ROS (MitoSox Red), primary cortical neurons; assay type: cell-based, rat; details: overnight treatment; n = 3, with 3 replicates
Experimental: Bottom, quantification of the form factor (degree of branching) and aspect ratio (major/minor axis length). At least 10,000 mitochondrial fragments were analyzed for each condition. Mitochondrial reactive oxygen species production (MitoSox Red) (b) and membrane potential (TMRM) (c) after overnight treatment with indicated concentrations of peptide (n = 3, with 3 replicates). […] Overlay of live microscopy imaging at time 0 (green) and 150 (red) seconds. […] An estimation of the % mobile mitochondria from the Pearson coefficient of each set of images. Data are mean ± s.e.
Following treatment, cells were washed with treatment media.
The Cy5 filter was used to autofocus on the mitochondria plane. Nuclei were imaged with a DAPI filter and the mitoROS (MitoSox) or membrane potential (TMRM) image was acquired with a TRITC filter. […] MitoROS was calculated as the average MitoSox signal per cell. The mitochondrial membrane potential was calculated as the average TMRM signal in the mitochondrial mask.
Mitochondrial reactive oxygen species determination […]
and 1% penicillin-streptomycin solution (Corning, NY, USA). Primary cortical neurons were treated with increasing concentrations of peptides in NbActiv1 media. HD Patient- and adult- […]
and without phenol red. […] After incubation
HEPES, and without phenol red. […]
calculated as the average MitoSox signal per cell. […]

With “YGRKKRRQRRRGSGIIQLPEIVVV-NH2 (C-terminus assumed) [P259]” the “decrease in ATP levels in the brain” value (wild-type mice) was 30% and the “mitochondrial ROS” value (primary cortical neurons) was “increased mitochondrial ROS”.
